Measurements: patent publication US10017492B2 (KANGPU BIOPHARMACEUTICALS, LTD., priority 2014, dated 2018)
Read-outs that look alike come from different tables or passages of the source.

Legend:
[1] = system: TNF-α; experiment: TNF-α activity inhibiting assay (LPS-stimulated peripheral blood, ELISA); format: cell-based, human; conditions: Homo sapiens, compound 100 nM, diluted peripheral blood of healthy volunteers, LPS 10 ng/mL, 6 hours, read-out: Inhibitory Rate on TNF-α (%)
Summary of the method: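 Human whole blood (EDTA), diluted 5-fold in RPMI 1640, pre-incubated 60 min at 37 °C with compound at 100 nM final (0.2% DMSO), then stimulated 6 h with 10 ng/mL LPS. Supernatant TNF-α measured by ELISA (OD450); inhibition relative to 0.2% DMSO control.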

[2] = system: MM.1S cells (myeloma cells); experiment: Cell proliferation assay (MTS), MM.1S myeloma cells; format: cell-based; conditions: Homo sapiens, MM1.S, 72 hours, read-out: IC50 values of MMIS Inhibition
Summary of the method: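 MM.1S myeloma cells were seeded at 1.8×10^3 per well in RPMI and rested 24 hours before 72 hours of compound exposure at 37° C., 5% CO2, with final DMSO at 0.5%. Viability was read by MTS at OD490 nm, using OD650 nm as reference. IC50 came from variable-slope curves, with the 0.5% DMSO control set as 0% inhibition.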

[3] = system: WSU-DLCL-2 cells (diffuse large B cell lymphoma cells); experiment: CTG cell proliferation assay, WSU-DLCL-2 cells; format: cell-based; conditions: 72-120 hours, CellTiter-Glo, read-out: IC50 Value of WSU-DLCL2 Inhibition
Experimental: (§1) CTG Cell Proliferation Assay
(§2) Rec-1 cells (Mantle cell lymphoma cells) (ATCC, catalog number CRL-3004), Namalwa.CSN/70 cells (Burkitt lymphoma cells) (DSMZ, catalog number ACC-70), and WSU-DLCL-2 cells (diffuse large B cell lymphoma cells) (DSMZ, catalog number ACC-575) were seeded at (5-15)×10^3 per well to a 96-well plate with transparent bottom and white wall (Corning, catalog number CLS3903) containing specific medium. The plate was placed in an incubator and incubated for 24 hours at 37° C. under 5% CO2. Compounds were prepared as 150 mM stock solutions with DMSO (Sigma, catalog number 276855), and were diluted with the medium to the desired concentration (the final concentration of DMSO was 0.2%) and then were added to each well, incubated in an incubator for 72-120 hours at 37° C. under 5% CO2. Then, 100 μl CellTiter-Glo® cell activity assay reagent (Promega, catalog number G7570) was added to each well. Mixing proceeded for 10 minutes on a shaker to induce cytolysis. The 96-well plate was placed at room temperature for 10 minutes to make the luminous signal stable. A white base film was pasted at the bottom of the culture plate. EnSpire was used to test the plate.

[4] = system: Rec-1 cells (Mantle cell lymphoma cells); experiment: CTG cell proliferation assay, Rec-1 cells; format: cell-based; conditions: Homo sapiens, Rec1, 72-120 hours, CellTiter-Glo, read-out: IC50 Value of Rec-1 Inhibition
Experimental: as §1, §2

[5] = system: Namalwa.CSN/70 cells (Burkitt lymphoma cells); experiment: CTG cell proliferation assay, Namalwa.CSN/70 cells; format: cell-based; conditions: 72-120 hours, CellTiter-Glo, read-out: IC50 Value of Namalwa.CSN/70 Inhibition
Experimental: as §1, §2

[6] = Homo sapiens, WSUDLCL2, WSU-DLCL-2 cells

Question: Which results are given for `Nc1cc(F)cc2c1CN(C1CCC(=O)NC1=O)C2=O` (stereo not shown) [Compound I-28, 3-(4-amino-6-fluoro-1-oxoisoindolin-2-yl)piperidine-2,6-dione]?
Answer: inhibition at 0.1 µM [1]: > 50%; IC50 [2]: < 0.3 µM; IC50 [3, 6]: > 300 µM; IC50 [4]: < 0.1 µM; IC50 [5]: > 300 µM

Question: With `[2H][C@]1(N2Cc3c(NCc4cccc(OC)c4F)cccc3C2=O)CCC(=O)NC1=O` [Compound A357, (S)-3-deuterium-3-(4-((2-fluoro-3-methoxybenzyl)amino)-1-oxoisoindolin-2-yl)piperidine-2,6-dione] as the compound, how does the inhibition at 0.1 µM [1] read?
Answer: ≥ 50%

Question: What about the IC50 [2] of the same compound?
Answer: < 0.3 µM

Question: And the IC50 [3, 6]?
Answer: 0.401 to 300 µM

Question: What about the IC50 [4] of the same compound?
Answer: < 0.1 µM

Question: And the IC50 [5]?
Answer: 0.1 to 0.4 µM

Question: How did the inhibition at 0.1 µM [1] turn out when `[2H][C@]1(N2Cc3c(NCc4ccc(OC)cc4F)cccc3C2=O)CCC(=O)NC1=O` [Compound A356, (S)-3-deuterium-3-(4-((2-fluoro-4-methoxybenzyl)amino)-1-oxoisoindolin-2-yl)piperidine-2,6-dione] was run?
Answer: ≥ 50%

Question: And the IC50 [2]?
Answer: < 0.3 µM

Question: What about the IC50 [3, 6] of the same compound?
Answer: 0.401 to 300 µM

Question: And the IC50 [4]?
Answer: < 0.1 µM

Question: What about the IC50 [5] of the same compound?
Answer: 0.1 to 0.4 µM

Question: With `[2H][C@]1(N2Cc3c(N)cc(F)cc3C2=O)CCC(=O)NC1=O` [Compound I-31] as the compound, how does the inhibition at 0.1 µM [1] read?
Answer: > 50%

Question: What about the IC50 [2] of the same compound?
Answer: < 0.3 µM

Question: And the IC50 [3, 6]?
Answer: 0.401 to 300 µM

Question: And the IC50 [4]?
Answer: < 0.1 µM

Question: What about the IC50 [5] of the same compound?
Answer: > 300 µM

Question: For `[2H][C@]1(N2Cc3c(NCc4cccc(CN5CCOCC5)c4F)cccc3C2=O)CCC(=O)NC1=O` [Compound A400, (S)-3-deuterium-3-(4-((2-fluoro-3-(morpholinomethyl)benzyl)amino)-1-oxoisoindolin-2-yl)piperidine-2,6-dione], which inhibition at 0.1 µM [1] is on record?
Answer: ≥ 50%

Question: And the IC50 [2]?
Answer: < 0.3 µM

Question: And the IC50 [3, 6]?
Answer: 0.401 to 300 µM

Question: And the IC50 [4]?
Answer: 0.1 to 0.4 µM

Question: What about the IC50 [5] of the same compound?
Answer: > 300 µM

Question: Which results are given for `O=C1CCC(N2Cc3c(NCc4ccc(CN5CCOCC5)cc4F)cccc3C2=O)C(=O)N1` (stereo not shown) [Compound A382]?
Answer: inhibition at 0.1 µM [1]: ≥ 50%; IC50 [2]: < 0.3 µM; IC50 [3, 6]: < 0.1 µM; IC50 [4]: < 0.1 µM; IC50 [5]: > 300 µM

Question: Which results are given for `COc1cccc(COc2cccc3c2CN(C2CCC(=O)NC2=O)C3=O)c1F` (stereo not shown) [Compound A334, 3-(4-((2-fluoro-3-methoxybenzyl)oxy)-1-oxoisoindolin-2-yl)piperidine-2,6-dione]?
Answer: inhibition at 0.1 µM [1]: ≥ 50%; IC50 [2]: < 0.3 µM; IC50 [3, 6]: > 300 µM; IC50 [4]: < 0.1 µM; IC50 [5]: > 300 µM

Question: `[2H][C@]1(N2Cc3c(OCc4cccc(CN5CCOCC5)c4F)cccc3C2=O)CCC(=O)NC1=O` [Compound A404, (S)-3-deuterium-3-(4-((2-fluoro-3-(morpholinomethyl)benzyl)oxy)-1-oxoisoindolin-2-yl)piperidine-2,6-dione] was tested. Which inhibition at 0.1 µM [1] did it give?
Answer: ≥ 50%

Question: What about the IC50 [2] of the same compound?
Answer: < 0.3 µM

Question: What about the IC50 [3, 6] of the same compound?
Answer: 0.401 to 300 µM

Question: What about the IC50 [4] of the same compound?
Answer: < 0.1 µM

Question: What about the IC50 [5] of the same compound?
Answer: > 300 µM

Question: `[2H]C1(N2Cc3c(OCc4ccc(CN5CC(C)OC(C)C5)cc4F)cccc3C2=O)CCC(=O)NC1=O` (stereo not shown) [Compound A427, 3-deuterium-3-(4-((4-((2,6-dimethylmorpholino)methyl)-2-fluorobenzyl)oxy)-1-oxoisoindolin-2-yl)piperidine-2,6-dione] was tested. Which inhibition at 0.1 µM [1] did it give?
Answer: ≥ 50%

Question: And the IC50 [2]?
Answer: < 0.3 µM

Question: And the IC50 ([3]; WSU-DLCL-2 cells)?
Answer: 0.401 to 300 µM

Question: What about the IC50 [4] of the same compound?
Answer: < 0.1 µM

Question: What about the IC50 [5] of the same compound?
Answer: > 300 µM

Question: Which inhibition at 0.1 µM [1] does the source give for `[2H][C@]1(N2Cc3c(OCc4ccc(CN5CCOCC5)cc4F)cccc3C2=O)CCC(=O)NC1=O` [Compound A406, (S)-3-deuterium-3-(4-((2-fluoro-4-(morpholinomethyl)benzyl)oxy)-1-oxoisoindolin-2-yl)piperidine-2,6-dione] here?
Answer: ≥ 50%

Question: And the IC50 [2]?
Answer: < 0.3 µM

Question: What about the IC50 [3, 6] of the same compound?
Answer: < 0.1 µM

Question: And the IC50 [4]?
Answer: < 0.1 µM

Question: What about the IC50 [5] of the same compound?
Answer: > 300 µM

Question: Which results are given for `O=C1CCC(N2Cc3c(NCc4cccc(CN5CCOCC5)c4F)cccc3C2=O)C(=O)N1` (stereo not shown) [Compound A381, 3-(4-((2-fluoro-3-(morpholinomethyl)benzyl)amino)-1-oxoisoindolin-2-yl)piperidine-2,6-dione]?
Answer: inhibition at 0.1 µM [1]: ≥ 50%; IC50 [2]: < 0.3 µM; IC50 [3, 6]: 0.401 to 300 µM; IC50 [4]: < 0.1 µM; IC50 [5]: > 300 µM
